# Test results: US10004701B2, “Methods and compositions for treating infection” (UNIVERSITY OF ROCHESTER, priority 2012, dated 2018)
# Where two headings read alike, the source gives them in different places.
# Legend:
# Assay in all cases: AK assay 384-well format, Prestwick library screening
# [1] = system: K. pneumoniae; format: cell-based, Klebsiella pneumoniae; details: 50 μM final drug concentration; for fold induction at 50 µM: Klebsiella pneumoniae, 3 h
# [2] = system: E. cloacae; format: cell-based, Enterobacter cloacae; details: 50 μM final drug concentration; for fold induction at 50 µM: Enterobacter cloacae, 3 h
# [3] = system: S. aureus strain USA300-0114; format: cell-based, Staphylococcus aureus; details: 50 μM final drug concentration; for fold induction at 50 µM: Staphylococcus aureus, USA300, 3 h
# [4] = system: E. coli; format: cell-based, Escherichia coli; details: 50 μM final drug concentration; for fold induction at 50 µM: Escherichia coli, 3 h
# [5] = system: E. faecium; format: cell-based, Enterococcus faecium; details: 50 μM final drug concentration; for fold induction at 50 µM: Enterococcus faecium, 3 h
# [6] = system: A. baumannii strain 98-37-09; format: cell-based, Acinetobacter baumannii; details: 50 μM final drug concentration; for fold induction at 50 µM: Acinetobacter baumannii, 983709, 3 h
# [7] = system: P. aeruginosa; format: cell-based, Pseudomonas aeruginosa; details: 50 μM final drug concentration; for fold induction at 50 µM: Pseudomonas aeruginosa, 3 h
# [8] = cutoff for positive-scoring molecules 3-fold increase
molecule,measurement,setting,value
NC(=O)OCC(O)COc1ccc(Cl)cc1 (centres unmarked) [Chlorphensin carbamate],AK-based Prestwick Library Screening Results: K. pneumoniae (increase in extracellular AK activity),"[1]; planktonic K. pneumoniae, 384-well, cutoff for positive-scoring molecules 3-fold increase",1.1
same,AK-based Prestwick Library Screening Results: E. cloacae (increase in extracellular AK activity),"[2]; planktonic E. cloacae, 384-well, cutoff for positive-scoring molecules 3-fold increase",1.4
same,AK-based Prestwick Library Screening Results: S. aureus (increase in extracellular AK activity),"[3]; planktonic S. aureus, 384-well, cutoff for positive-scoring molecules 3-fold increase",1.0
same,AK-based Prestwick Library Screening Results: E. coli (increase in extracellular AK activity),"[4]; planktonic E. coli, 384-well, cutoff for positive-scoring molecules 3-fold increase",1.2
same,AK-based Prestwick Library Screening Results: E. faecium (increase in extracellular AK activity),"[5]; planktonic E. faecium, 384-well, cutoff for positive-scoring molecules 3-fold increase",0.9
same,AK-based Prestwick Library Screening Results: A. baumannii (increase in extracellular AK activity),"[6]; planktonic A. baumannii, 384-well, cutoff for positive-scoring molecules 3-fold increase",1.3
same,AK-based Prestwick Library Screening Results: P. aeruginosa (increase in extracellular AK activity),"[7]; planktonic P. aeruginosa, 384-well, cutoff for positive-scoring molecules 3-fold increase",1.1
CC(C)(Oc1ccc(C2CC2(Cl)Cl)cc1)C(=O)O (centres unmarked) [Ciprofibrate],fold induction at 50 µM,"[1]; planktonic K. pneumoniae, positive cutoff 3-fold increase, read-out: AK-based Prestwick library screening result, K. pneumoniae (fold increase in extracellular AK activity)",0.8
same,fold induction at 50 µM,"[2]; planktonic E. cloacae, positive cutoff 3-fold increase, read-out: AK-based Prestwick library screening result, E. cloacae (fold increase in extracellular AK activity)",1.2
same,fold induction at 50 µM,"[3]; planktonic S. aureus, positive cutoff 3-fold increase, read-out: AK-based Prestwick library screening result, S. aureus (fold increase in extracellular AK activity)",0.7
same,fold induction at 50 µM,"[4]; planktonic E. coli, positive cutoff 3-fold increase, read-out: AK-based Prestwick library screening result, E. coli (fold increase in extracellular AK activity)",0.8
same,fold induction at 50 µM,"[5]; planktonic E. faecium, positive cutoff 3-fold increase, read-out: AK-based Prestwick library screening result, E. faecium (fold increase in extracellular AK activity)",0.9
same,fold induction at 50 µM,"[6]; planktonic A. baumannii, positive cutoff 3-fold increase, read-out: AK-based Prestwick library screening result, A. baumannii (fold increase in extracellular AK activity)",0.8
same,fold induction at 50 µM,"[7]; planktonic P. aeruginosa, positive cutoff 3-fold increase, read-out: AK-based Prestwick library screening result, P. aeruginosa (fold increase in extracellular AK activity)",0.7
CCn1nc(C(=O)O)c(=O)c2cc3c(cc21)OCO3 [Cinoxacin],fold induction at 50 µM,"[1]; cutoff for positive-scoring molecules 3-fold increase, read-out: AK-based Prestwick Library Screening Results, K. pneumoniae (fold increase in extracellular AK activity)",2.1
same,fold induction at 50 µM,"[2]; cutoff for positive-scoring molecules 3-fold increase, read-out: AK-based Prestwick Library Screening Results, E. cloacae (fold increase in extracellular AK activity)",1.4
same,fold induction at 50 µM,"[3]; cutoff for positive-scoring molecules 3-fold increase, read-out: AK-based Prestwick Library Screening Results, S. aureus (fold increase in extracellular AK activity)",1.3
same,fold induction at 50 µM,"[4]; cutoff for positive-scoring molecules 3-fold increase, read-out: AK-based Prestwick Library Screening Results, E. coli (fold increase in extracellular AK activity)",10.3
same,fold induction at 50 µM,"[5]; cutoff for positive-scoring molecules 3-fold increase, read-out: AK-based Prestwick Library Screening Results, E. faecium (fold increase in extracellular AK activity)",1.1
same,fold induction at 50 µM,"[6]; cutoff for positive-scoring molecules 3-fold increase, read-out: AK-based Prestwick Library Screening Results, A. baumannii (fold increase in extracellular AK activity)",1.3
same,fold induction at 50 µM,"[7]; cutoff for positive-scoring molecules 3-fold increase, read-out: AK-based Prestwick Library Screening Results, P. aeruginosa (fold increase in extracellular AK activity)",1.2
CO[C@@H]1[C@@H](O[C@@H]2O[C@H](C)[C@@H](O[C@H]3C[C@@](C)(O)[C@@H](OC(=O)CC(C)C)[C@H](C)O3)[C@H](N(C)C)[C@H]2O)[C@@H](CC=O)C[C@@H](C)[C@@H](O)/C=C/C=C/C[C@@H](C)OC(=O)C[C@H]1OC(C)=O [Josamycin],fold induction at 50 µM,"[1]; planktonic K. pneumoniae, 384-well, cutoff for positive-scoring molecules 3-fold increase, read-out: AK-based Prestwick Library Screening Results: K. pneumoniae (increase in extracellular AK activity)",1
same,fold induction at 50 µM,"[2]; planktonic E. cloacae, 384-well, cutoff for positive-scoring molecules 3-fold increase, read-out: AK-based Prestwick Library Screening Results: E. cloacae (increase in extracellular AK activity)",1.4
same,fold induction at 50 µM,"[3]; planktonic S. aureus, 384-well, cutoff for positive-scoring molecules 3-fold increase, read-out: AK-based Prestwick Library Screening Results: S. aureus (increase in extracellular AK activity)",8.4
same,fold induction at 50 µM,"[4]; planktonic E. coli, 384-well, cutoff for positive-scoring molecules 3-fold increase, read-out: AK-based Prestwick Library Screening Results: E. coli (increase in extracellular AK activity)",1.3
same,fold induction at 50 µM,"[5]; planktonic E. faecium, 384-well, cutoff for positive-scoring molecules 3-fold increase, read-out: AK-based Prestwick Library Screening Results: E. faecium (increase in extracellular AK activity)",1
same,fold induction at 50 µM,"[6]; planktonic A. baumannii, 384-well, cutoff for positive-scoring molecules 3-fold increase, read-out: AK-based Prestwick Library Screening Results: A. baumannii (increase in extracellular AK activity)",1.1
same,fold induction at 50 µM,"[7]; planktonic P. aeruginosa, 384-well, cutoff for positive-scoring molecules 3-fold increase, read-out: AK-based Prestwick Library Screening Results: P. aeruginosa (increase in extracellular AK activity)",0.9
C/C=C1/C[N@+]2(C)CC[C@]34C(=C(C=O)[C@H]1C[C@@H]32)Nc1ccccc14.[Cl-] [Fluorocurarine chloride],"AK-based Prestwick Library Screening Results, K. pneumoniae (fold increase in extracellular AK activity)","[1]; planktonic, […]",0.7
same,"AK-based Prestwick Library Screening Results, E. cloacae (fold increase in extracellular AK activity)","[2]; planktonic, […]",1.4
same,"AK-based Prestwick Library Screening Results, S. aureus (fold increase in extracellular AK activity)","[3]; planktonic, […]",0.8
same,"AK-based Prestwick Library Screening Results, E. coli (fold increase in extracellular AK activity)","[4]; planktonic, […]",0.9
same,"AK-based Prestwick Library Screening Results, E. faecium (fold increase in extracellular AK activity)","[5]; planktonic, […]",0.9
same,"AK-based Prestwick Library Screening Results, A. baumannii (fold increase in extracellular AK activity)","[6]; planktonic, […]",0.9
same,"AK-based Prestwick Library Screening Results, P. aeruginosa (fold increase in extracellular AK activity)","[7]; planktonic, […]",0.8
Isoetharine mesylate salt,"AK-based Prestwick Library Screening Results, K. pneumoniae (fold increase in extracellular AK activity)","[1]; planktonic, […]",1.4
same,"AK-based Prestwick Library Screening Results, E. cloacae (fold increase in extracellular AK activity)","[2]; planktonic, […]",0.9
same,"AK-based Prestwick Library Screening Results, S. aureus (fold increase in extracellular AK activity)","[3]; planktonic, […]",0.6
same,"AK-based Prestwick Library Screening Results, E. coli (fold increase in extracellular AK activity)","[4]; planktonic, […]",0.9
same,"AK-based Prestwick Library Screening Results, E. faecium (fold increase in extracellular AK activity)","[5]; planktonic, […]",0.9
same,"AK-based Prestwick Library Screening Results, A. baumannii (fold increase in extracellular AK activity)","[6]; planktonic, […]",0.8
same,"AK-based Prestwick Library Screening Results, P. aeruginosa (fold increase in extracellular AK activity)","[7]; planktonic, […]",0.6
O=S(=O)(O)c1cc(O)ccc1O [Ethamsylate],fold induction at 50 µM,"[1]; planktonic K. pneumoniae, […], read-out: AK-based Prestwick library screening result, K. pneumoniae (fold increase in extracellular AK activity)",1.1
same,fold induction at 50 µM,"[2]; planktonic E. cloacae, […], read-out: AK-based Prestwick library screening result, E. cloacae (fold increase in extracellular AK activity)",0.8
same,fold induction at 50 µM,"[3]; planktonic S. aureus, […], read-out: AK-based Prestwick library screening result, S. aureus (fold increase in extracellular AK activity)",1
same,fold induction at 50 µM,"[4]; planktonic E. coli, […], read-out: AK-based Prestwick library screening result, E. coli (fold increase in extracellular AK activity)",1.2
same,fold induction at 50 µM,"[5]; planktonic E. faecium, […], read-out: AK-based Prestwick library screening result, E. faecium (fold increase in extracellular AK activity)",0.9
same,fold induction at 50 µM,"[6]; planktonic A. baumannii, […], read-out: AK-based Prestwick library screening result, A. baumannii (fold increase in extracellular AK activity)",1.2
same,fold induction at 50 µM,"[7]; planktonic P. aeruginosa, […], read-out: AK-based Prestwick library screening result, P. aeruginosa (fold increase in extracellular AK activity)",1
Trimeprazine tartrate,"AK-based Prestwick Library Screening Results, K. pneumoniae (fold increase in extracellular AK activity)",[1]; [8],0.9
same,"AK-based Prestwick Library Screening Results, E. cloacae (fold increase in extracellular AK activity)",[2]; [8],1.5
same,"AK-based Prestwick Library Screening Results, S. aureus (fold increase in extracellular AK activity)",[3]; [8],1.1
same,"AK-based Prestwick Library Screening Results, E. coli (fold increase in extracellular AK activity)",[4]; [8],1.2
same,"AK-based Prestwick Library Screening Results, E. faecium (fold increase in extracellular AK activity)",[5]; [8],1.0
same,"AK-based Prestwick Library Screening Results, A. baumannii (fold increase in extracellular AK activity)",[6]; [8],1.1
same,"AK-based Prestwick Library Screening Results, P. aeruginosa (fold increase in extracellular AK activity)",[7]; [8],1.2
